Here are results for 14 compounds from US20220169643A1, “ESTROGEN RECEPTOR DEGRADING PROTACS” (AstraZeneca AB, priority 2019, published 2022).

pIC50: −log10 of the molar value.

In the test the target is T1, Estrogen Receptor Alpha Ligand binding domain (ER alpha-LBD (GST)) (Homo sapiens, UniProt P03372).
T1 construct: made in house
T1 sequence (P03372 307-554): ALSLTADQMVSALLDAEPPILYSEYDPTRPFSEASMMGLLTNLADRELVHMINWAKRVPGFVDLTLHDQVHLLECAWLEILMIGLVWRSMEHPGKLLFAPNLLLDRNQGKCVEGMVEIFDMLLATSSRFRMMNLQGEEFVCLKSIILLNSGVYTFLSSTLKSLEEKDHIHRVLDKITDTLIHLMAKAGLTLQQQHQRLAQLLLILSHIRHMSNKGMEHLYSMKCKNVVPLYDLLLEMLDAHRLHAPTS
The test can be described thus: ERα Binding Assay (LanthaScreen TR-FRET competition). The conditions noted are these: competitive displacement of Fluormone ES2 tracer from recombinant human ER alpha-LBD (residues 307-554), 4 hours at room temperature. The protocol: The ability of compounds to bind to isolated Estrogen Receptor Alpha Ligand binding domain (ER alpha-LBD (GST)) was assessed in competition assays using a LanthaScreen™ Time-Resolved Fluorescence Resonance Energy Transfer (TR-FRET) detection end-point. For the LanthaScreen TR-FRET endpoint, a suitable fluorophore (Fluormone ES2, ThermoFisher, Product code P2645) and recombinant human Estrogen Receptor alpha ligand binding domain, residues 307-554 (expressed and purified in-house) were used to measure compound binding. The assay principle is that ER alpha-LBD (GST) is added to a fluorescent ligand to form a receptor/fluorophore complex. A terbium-labelled anti-GST antibody (Product code PV3551) is used to indirectly label the receptor by binding to its GST tag, and competitive binding is detected by a test compound's ability to displace the fluorescent ligand, resulting in a loss of TR-FRET signal between the Th-anti-GST antibody and the tracer. The assay was performed as follows with all reagent additions carried out using the Beckman Coulter BioRAPTR FRD microfluidic workstation: • 1. Acoustic dispense 120 nL of the test compound into a black low volume 384 well assay plates. • 2. Prepare 1×ER alpha-LBD/Tb-anti-GST Ab in ES2 screening buffer and incubate for 15 minutes. • 3. Dispense 6 μL of the 1×[…]/Th-anti-GST Ab reagent into each well of the assay plate followed by 6 μL of Fluorophore reagent into each well of the assay plate • 4. Cover the assay plate to protect the reagents from light and evaporation, and incubate at room temperature for 4 hours. • 5. Excite at 337 nm and measure the fluorescent emission signal of each well at 490 nm and 520 nm using the BMG PheraSTAR.
Compounds were dosed directly from a compound source microplate containing serially diluted compound (4 wells containing 10 mM, […] and 10 nM final compound respectively) to an assay microplate using the Labcyte Echo 550. The Echo 550 is a liquid handler that uses acoustic technology to perform direct microplate-to-microplate transfers of DMSO compound solutions and the system can be programmed to transfer multiple small nL volumes of compound from the different source plate wells to give the desired serial dilution of compound in the assay which is then back-filled to normalise the DMSO concentration across the dilution range.
In total 120 nL of compound plus DMSO were added to each well and compounds were tested in a 12-point concentration response format over a final compound concentration range of 10, 2.917, 1.042, 0.2083, 0.1, 0.0292, 0.0104, 0.002083, 0.001, 0.0002917, 0.0001042, and 0.00001 μM respectively. TR-FRET dose response data obtained with each compound was exported into a suitable software package (such as Origin or Genedata) to perform curve fitting analysis. Competitive ER alpha binding was expressed as an IC50 value. This was determined by calculation of the concentration of compound that was required to give a 50% reduction in tracer compound binding to ER alpha-LBD.

Take `C[C@@H]1Cc2c([nH]c3ccccc23)[C@@H](c2cnc(N3CCC4(CCN(CCC5CCN(c6ccc7c(c6)CN(C6CCC(=O)NC6=O)C7=O)CC5)CC4)CC3)nc2)N1CC(C)(C)F` (stereo partly drawn) [Example 10, 3-(5-{4-[2-(9-{5-[(1R,3R)-2-(2-fluoro-2-methylpropyl)-3-methyl-2,3,4,9-tetrahydro-1H-beta-carbolin-1-yl]pyrimidin-2-yl}-3,9-diazaspiro[5.5]undecan-3-yl)ethyl]piperidin-1-yl}-1-oxo-1,3-dihydro-2H-isoindol-2-yl)piperidine-2,6-dione]: the pIC50 is 7.65. The value for `C[C@@H]1Cc2c([nH]c3ccccc23)[C@@H](c2ccc(N3CCC(CN4CCC5(CC4)CCN(c4ccc6c(c4)CN(C4CCC(=O)NC4=O)C6=O)CC5)CC3)cn2)N1CC(C)(C)F` (stereo partly drawn) [Example 21, 3-(5-{9-[(1-{6-[(1S,3R)-2-(2-fluoro-2-methylpropyl)-3-methyl-2,3,4,9-tetrahydro-1H-beta-carbolin-1-yl]pyridin-3-yl}piperidin-4-yl)methyl]-3,9-diazaspiro[5.5]undecan-3-yl}-1-oxo-1,3-dihydro-2H-isoindol-2-yl)piperidine-2,6-dione] was 8.12; that for `C[C@@H]1Cc2c([nH]c3ccccc23)[C@@H](c2cnc(N3CCC(CN(C)C4CN(CC5CCN(c6ccc7c(c6)CN(C6CCC(=O)NC6=O)C7=O)CC5)C4)CC3)nc2)N1CC(C)(C)F` (stereo partly drawn) [Example 16, 3-(5-{4-[(3-{[(1-{5-[(1R,3R)-2-(2-fluoro-2-methylpropyl)-3-methyl-2,3,4,9-tetrahydro-1H-beta-carbolin-1-yl]pyrimidin-2-yl}piperidin-4-yl)methyl](methyl)amino}azetidin-1-yl)methyl]piperidin-1-yl}-1-oxo-1,3-dihydro-2H-isoindol-2-yl)piperidine-2,6-dione] was 8.52; that for `C[C@@H]1Cc2c([nH]c3ccccc23)[C@@H](c2cnc(N3CCC(CN4CCC(CN5CCN(c6ccc7c(c6)CN(C6CCC(=O)NC6=O)C7=O)CC5)CC4)CC3)nc2)N1CC(C)(C)F` (stereo partly drawn) [Example 14, 3-{5-[4-({1-[(1-{5-[(1R,3R)-2-(2-fluoro-2-methylpropyl)-3-methyl-2,3,4,9-tetrahydro-1H-beta-carbolin-1-yl]pyrimidin-2-yl}piperidin-4-yl)methyl]piperidin-4-yl}methyl)piperazin-1-yl]-1-oxo-1,3-dihydro-2H-isoindol-2-yl}piperidine-2,6-dione] was 8.07. Next, `C[C@@H]1Cc2c([nH]c3ccccc23)[C@@H](c2cnc(N3CCC(CN4CCN(c5ccc6c(c5)CN(C5CCC(=O)NC5=O)C6=O)CC4)CC3)nc2)N1CC(F)(F)F` (stereo partly drawn) [Example 35, 3-(5-{4-[(1-{5-[(1R,3R)-3-methyl-2-(2,2,2-trifluoroethyl)-2,3,4,9-tetrahydro-1H-beta-carbolin-1-yl]pyrimidin-2-yl}piperidin-4-yl)methyl]piperazin-1-yl}-1-oxo-1,3-dihydro-2H-isoindol-2-yl)piperidine-2,6-dione]: 8.16; `C[C@@H]1Cc2c([nH]c3ccccc23)[C@@H](c2cnc(N3CCC(CN4CCC5(CC4)CCN(c4ccc6c(c4)CN(C4CCC(=O)NC4=O)C6=O)CC5)CC3)nc2)N1CC(C)(C)F` (mixture of isomers) [Example 7, 3-(5-{9-[(1-{5-[(1R,3R)-2-(2-fluoro-2-methylpropyl)-3-methyl-2,3,4,9-tetrahydro-1H-beta-carbolin-1-yl]pyrimidin-2-yl}piperidin-4-yl)methyl]-3,9-diazaspiro[5.5]undecan-3-yl}-1-oxo-1,3-dihydro-2H-isoindol-2-yl)piperidine-2,6-dione]: 8.33. The value for `COc1cc(N2CCN(CCCC3CCN(c4ncc([C@@H]5c6[nH]c7ccccc7c6C[C@@H](C)N5CC(C)(C)F)cn4)CC3)CC2)cc2c1C(=O)N(C1CCC(=O)NC1=O)C2` (stereo partly drawn) [Example 13, 3-(5-{4-[3-(1-{5-[(1R,3R)-2-(2-fluoro-2-methylpropyl)-3-methyl-2,3,4,9-tetrahydro-1H-beta-carbolin-1-yl]pyrimidin-2-yl}piperidin-4-yl)propyl]piperazin-1-yl}-7-methoxy-1-oxo-1,3-dihydro-2H-isoindol-2-yl)piperidine-2,6-dione] was 8.52.

In the case of `C[C@@H]1Cc2c([nH]c3ccccc23)[C@@H](c2cnc(N3CCC4(CCN(CCC5CCN(c6ccc7c(c6)CN(C6CCC(=O)NC6=O)C7=O)CC5)CCO4)CC3)nc2)N1CC(C)(C)F` (stereo partly drawn) [Example 17, 3-(5-{4-[2-(3-{5-[(1R,3R)-2-(2-fluoro-2-methylpropyl)-3-methyl-2,3,4,9-tetrahydro-1H-beta-carbolin-1-yl]pyrimidin-2-yl}-7-oxa-3,10-diazaspiro[5.6]dodecan-10-yl)ethyl]piperidin-1-yl}-1-oxo-1,3-dihydro-2H-isoindol-2-yl)piperidine-2,6-dione], the pIC50 was 7.86. Next, `C[C@@H]1Cc2c([nH]c3ccccc23)[C@@H](c2cnc(N3CCC(CCN4CCC5(CC4)CCN(c4ccc6c(c4)CN(C4CCC(=O)NC4=O)C6=O)CC5)CC3)nc2)N1CC(C)(C)F` (stereo partly drawn) [Example 11, 3-(5-{9-[2-(1-{5-[(1R,3R)-2-(2-fluoro-2-methylpropyl)-3-methyl-2,3,4,9-tetrahydro-1H-beta-carbolin-1-yl]pyrimidin-2-yl}piperidin-4-yl)ethyl]-3,9-diazaspiro[5.5]undecan-3-yl}-1-oxo-1,3-dihydro-2H-isoindol-2-yl)piperidine-2,6-dione]: 8.92. In the case of `C[C@@H]1Cc2c([nH]c3ccccc23)[C@@H](c2cnc(N3CCC(OCCCN4CCN(c5ccc6c(c5)CN(C5CCC(=O)NC5=O)C6=O)CC4)CC3)nc2)N1CC(C)(C)F` (stereo partly drawn) [Example 38, 3-[5-(4-{3-[(1-{5-[(1R,3R)-2-(2-fluoro-2-methylpropyl)-3-methyl-2,3,4,9-tetrahydro-1H-beta-carbolin-1-yl]pyrimidin-2-yl}piperidin-4-yl)oxy]propyl}piperazin-1-yl)-1-oxo-1,3-dihydro-2H-isoindol-2-yl]piperidine-2,6-dione], the pIC50 is 8.44. The value for `C[C@@H]1Cc2c([nH]c3ccccc23)[C@@H](c2cnc(N3CCC(CCCN4CCN(c5ccc6c(c5)CN(C5CCC(=O)NC5=O)C6=O)CC4)CC3)nc2)N1CC(C)(C)F` (stereo partly drawn) [Example 8, 3-(5-{4-[3-(1-{5-[(1R,3R)-2-(2-fluoro-2-methylpropyl)-3-methyl-2,3,4,9-tetrahydro-1H-beta-carbolin-1-yl]pyrimidin-2-yl}piperidin-4-yl)propyl]piperazin-1-yl}-1-oxo-1,3-dihydro-2H-isoindol-2-yl)piperidine-2,6-dione] was 8.37; that for `C[C@@H]1Cc2c([nH]c3ccccc23)[C@@H](c2cnc(N3CCC(OCCN4CCN(c5ccc6c(c5)CN(C5CCC(=O)NC5=O)C6=O)CC4)CC3)nc2)N1CC(C)(C)F` (stereo partly drawn) [Example 4, 3-[5-[4-[2-[[1-[5-[(1R,3R)-2-(2-Fluoro-2-methyl-propyl)-3-methyl-1,3,4,9-tetrahydropyrido[3,4-b]indol-1-yl]pyrimidin-2-yl]-4-piperidyl]oxy]ethyl]piperazin-1-yl]-1-oxo-isoindolin-2-yl]piperidine-2,6-dione] was 8.68.

Turning to `C[C@@H]1Cc2c([nH]c3ccccc23)[C@@H](c2cnc(N3CCC(CCN4CCN(c5ccc6c(c5)CN(C5CCC(=O)NC5=O)C6=O)CC4)CC3)nc2)N1CC(F)(F)F` (stereo partly drawn) [Example 15, 3-(5-{4-[2-(1-{5-[(1R,3R)-3-methyl-2-(2,2,2-trifluoroethyl)-2,3,4,9-tetrahydro-1H-beta-carbolin-1-yl]pyrimidin-2-yl}piperidin-4-yl)ethyl]piperazin-1-yl}-1-oxo-1,3-dihydro-2H-isoindol-2-yl)piperidine-2,6-dione], the pIC50 was 8.43. The value for “3-[5-(9-{2-[(1S,3r)-3-({5-[(1R,3R)-2-(2-fluoro-2-methylpropyl)-3-methyl-2,3,4,9-tetrahydro-1H-beta-carbolin-1-yl]pyrimidin-2-yl}oxy)cyclobutyl]ethyl}-3,9-diazaspiro[5.5]undecan-3-yl)-1-oxo-1,3-dihydro-2H-isoindol-2-yl]piperidine-2,6-dione [Example 23]” was 8.36.
